From PMC7736868, “Fluorescent ligands for dopamine D2/D3 receptors” (Scientific Reports, 2020)

Assays:
[1] = molecular target: T1, secNluc-D3R (UniProt P35462+Q9GV45, A31E/A60N/A81I/F95D/I117V/K70R/L54V/L99Q/M102K/N193R/P142E/Q151K/Q38R/Q45L/V71I/Y165I); test: Membrane-based NanoBRET saturation binding; details: membranes from HEK293T cells expressing secNluc-D3R; KD ± SEM
Experimental: . After addition of furimazine (1:5,000, final volume 35 µL), and 5 min incubation at room temperature in the dark, BRET readings were obtained using a CLARIOstar plate reader equipped with a 475/30 nm donor together with a 535/30 nm (for 10a) or 620/30 nm (for 10b) acceptor emission filter. […]. Kinetic assays were monitored at room temperature and minimal possible cycle time of the CLARIOstar was used for each measurement. Data was fitted to one phase association and dissociation equations in PRISM6.0 to determine the kinetic constants. In competition binding experiments, membranes were incubated with serial dilutions of unlabeled ligands and the fluorescent ligand 10a (10 or 100 nM) for 90 min at 37 °C. Addition of furimazine (1:5,000) and BRET measurements were carried out as described above. Data analysis was performed using the one site—fit Ki equation in PRISM6.0 to determine the inhibition constants (Ki) of the unlabeled ligands.
Supplementary Fig. 4. NanoBRET saturation curves obtained with ligands 10a,b and membranes from HEK293T expressing secNluc- D3R. […]
calculated as the difference between total and non- specific binding . BRET was measured after 90 min incubation at 37 °C and represents mean ± SD of an individual representative out of 3 – 4 independent experiments, with each condition in triplicate. […]

[2] = molecular target: T1, secNluc-D3R; test: Live-cell NanoBRET saturation binding, HEK293T cells
Experimental: Figure 5 NanoBRET saturation curves for the fluorescent ligands 10a-c. Saturation binding experiments were performed with live HEK293T cells expressing secNluc-D3R and the fluorescent ligands 10a, 10b and 10c, comprising a trifluorethyl-rhodamine derivative, a Cy3B and an Alexa488 fluorophore, respectively. […] Data points show mean ± SEM of one representative out of n = 5 (for 10a) or n = 4 (for 10b,c) experiments, with each condition carried out in triplicate. The netBRET signal was calculated as the difference between total BRET and the signal obtained in the absence of a fluorescent ligand.
For whole cell NanoBRET saturation assays, HEK293T cells were transfected with secNluc-D3R employing Mirus TransIT-293 (3:1 reagent to DNA ratio). After 24 h at 37 °C, 5% CO2, cells were detached using Versene and transferred to white, F-bottom 384-well plates at a density of 2,500 cells/well and incubated for another 24 h at 37 °C, 5% CO2. Cells were washed with PBS and incubated for 30 min at 37 °C with 5% FBS in DMEM without phenol red, before the fluorescent ligands (5 µL, diluted into DMEM without phenol red with 5% FBS from a 1 mM DMSO-stock) were added. […] After 1 h incubation with the ligands at 37 °C, furimazine (Promega, final dilution 1:500 to 1:2,500) was added, followed by a 5 min incubation at room temperature in the dark. BRET was measured as the ratio of acceptor fluorescence and donor luminescence employing a CLARIOstar microplate reader equipped with 475/30 nm and 535/30 or 580/30 emission filters, respectively. Total, non-specific and specific binding were analyzed employing the algorithms for one-site saturation binding implemented in PRISM6.0 or 8.0.

[3] = read-out: KD NanoBRET saturation; live HEK293T cells expressing secNluc-D3R; KD ± SEM

T1 sequence (Q9GV45+P35462 fused with the stated changes): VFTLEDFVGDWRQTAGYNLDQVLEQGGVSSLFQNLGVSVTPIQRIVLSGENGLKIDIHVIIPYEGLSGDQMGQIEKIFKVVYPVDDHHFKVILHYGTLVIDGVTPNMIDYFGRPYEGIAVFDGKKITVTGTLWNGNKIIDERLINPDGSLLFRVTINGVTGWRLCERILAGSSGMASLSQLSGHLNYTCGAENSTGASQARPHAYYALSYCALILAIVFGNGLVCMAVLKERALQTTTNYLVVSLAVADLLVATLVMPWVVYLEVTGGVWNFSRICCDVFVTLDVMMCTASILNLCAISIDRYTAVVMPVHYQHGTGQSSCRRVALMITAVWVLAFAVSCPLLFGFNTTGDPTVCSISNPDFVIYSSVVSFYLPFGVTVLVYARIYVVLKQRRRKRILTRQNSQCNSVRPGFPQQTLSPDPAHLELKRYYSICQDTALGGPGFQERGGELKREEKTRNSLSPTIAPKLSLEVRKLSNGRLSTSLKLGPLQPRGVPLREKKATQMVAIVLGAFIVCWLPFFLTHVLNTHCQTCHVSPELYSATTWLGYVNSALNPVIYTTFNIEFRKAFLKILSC

Row | Structure (SMILES) | Kd [1] | Kd ([2]; live HEK293T cells expressing secNluc-D3R; KD ± SEM; read-out: KD NanoBRET saturation) | Kd [2, 3]
1 | CCCN(CCCCc1cn(-c2ccc(CNC(=O)c3ccc(-c4c5ccc(=NCC(F)(F)F)cc-5oc5cc(NCC(F)(F)F)ccc45)c(C(=O)O)c3)cc2)nn1)C1Cc2ccccc2C1 [10a] | 900 ± 140 pM | 720 ± 70 pM | –
2 | CCCN(CCCCc1cn(-c2ccc(C(=O)NCCCNC(=O)Cc3ccc4c(c3)C(C)(C)C3=C5C=C6C7=[N+](CCC6OC5CCN34)c3ccc(S(=O)(=O)[O-])cc3C7(C)C)cc2)nn1)C1Cc2ccccc2C1 (centres unmarked) [10b] | 11300 ± 1600 pM | – | 12100 ± 1700 pM
3 | CCCN(CCCCc1cn(-c2ccc(C(=O)NCCCNC(=O)c3ccc(-c4c5ccc(=N)c(S(=O)(=O)O)c-5oc5c(S(=O)(=O)O)c(N)ccc45)c(C(=O)O)c3)cc2)nn1)C1Cc2ccccc2C1 [10c] | – | – | 720 ± 80 pM
